Assay results taken from ChEMBL document CHEMBL1131407, “Synthesis and metabotropic glutamate receptor activity of a 2-aminobicyclo[3.2.0]heptane-2,5-dicarboxylic acid, a molecule possessing an extended glutamate conformation” (Bioorg Med Chem Lett, 1998).

Legend:
[1] = molecular target: Metabotropic glutamate receptor 1 (Homo sapiens) (UniProt Q13255); experiment: Compound (300 uM) was evaluated for percentage agonist activity against human mGluR1a expressed in chinese hamster ovary cells; type: functional, cell-based
[2] = molecular target: Metabotropic glutamate receptor 6 (Homo sapiens) (UniProt O15303); experiment: Compound (300 uM) was evaluated for percentage agonist activity against human mGluR6 expressed in chinese hamster ovary cells; type: functional, cell-based
Sequence of Metabotropic glutamate receptor 6 (Homo sapiens) (O15303 whole entry): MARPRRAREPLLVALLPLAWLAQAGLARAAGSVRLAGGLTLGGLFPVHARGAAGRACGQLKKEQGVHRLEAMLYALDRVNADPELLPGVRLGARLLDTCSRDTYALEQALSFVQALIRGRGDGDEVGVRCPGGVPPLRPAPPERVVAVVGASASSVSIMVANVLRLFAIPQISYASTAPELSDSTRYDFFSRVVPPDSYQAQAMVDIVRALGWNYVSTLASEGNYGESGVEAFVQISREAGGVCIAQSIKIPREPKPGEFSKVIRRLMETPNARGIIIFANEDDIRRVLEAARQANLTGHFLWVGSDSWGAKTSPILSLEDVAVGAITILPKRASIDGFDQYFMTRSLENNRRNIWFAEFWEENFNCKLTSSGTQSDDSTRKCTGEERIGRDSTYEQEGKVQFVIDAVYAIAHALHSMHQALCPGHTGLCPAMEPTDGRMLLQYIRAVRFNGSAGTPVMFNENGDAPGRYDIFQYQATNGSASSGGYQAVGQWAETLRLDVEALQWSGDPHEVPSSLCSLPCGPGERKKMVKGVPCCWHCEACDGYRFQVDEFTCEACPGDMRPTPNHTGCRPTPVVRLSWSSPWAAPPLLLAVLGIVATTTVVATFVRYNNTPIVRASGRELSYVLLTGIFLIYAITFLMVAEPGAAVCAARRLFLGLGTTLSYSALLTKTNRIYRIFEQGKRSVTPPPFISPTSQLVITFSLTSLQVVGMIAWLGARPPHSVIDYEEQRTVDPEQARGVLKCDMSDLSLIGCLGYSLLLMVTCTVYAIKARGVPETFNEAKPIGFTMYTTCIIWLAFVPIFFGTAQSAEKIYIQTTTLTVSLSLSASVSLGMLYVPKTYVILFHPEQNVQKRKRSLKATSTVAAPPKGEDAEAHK

Sequence of Metabotropic glutamate receptor 1 (Homo sapiens) (Q13255 19-1194 limits assumed): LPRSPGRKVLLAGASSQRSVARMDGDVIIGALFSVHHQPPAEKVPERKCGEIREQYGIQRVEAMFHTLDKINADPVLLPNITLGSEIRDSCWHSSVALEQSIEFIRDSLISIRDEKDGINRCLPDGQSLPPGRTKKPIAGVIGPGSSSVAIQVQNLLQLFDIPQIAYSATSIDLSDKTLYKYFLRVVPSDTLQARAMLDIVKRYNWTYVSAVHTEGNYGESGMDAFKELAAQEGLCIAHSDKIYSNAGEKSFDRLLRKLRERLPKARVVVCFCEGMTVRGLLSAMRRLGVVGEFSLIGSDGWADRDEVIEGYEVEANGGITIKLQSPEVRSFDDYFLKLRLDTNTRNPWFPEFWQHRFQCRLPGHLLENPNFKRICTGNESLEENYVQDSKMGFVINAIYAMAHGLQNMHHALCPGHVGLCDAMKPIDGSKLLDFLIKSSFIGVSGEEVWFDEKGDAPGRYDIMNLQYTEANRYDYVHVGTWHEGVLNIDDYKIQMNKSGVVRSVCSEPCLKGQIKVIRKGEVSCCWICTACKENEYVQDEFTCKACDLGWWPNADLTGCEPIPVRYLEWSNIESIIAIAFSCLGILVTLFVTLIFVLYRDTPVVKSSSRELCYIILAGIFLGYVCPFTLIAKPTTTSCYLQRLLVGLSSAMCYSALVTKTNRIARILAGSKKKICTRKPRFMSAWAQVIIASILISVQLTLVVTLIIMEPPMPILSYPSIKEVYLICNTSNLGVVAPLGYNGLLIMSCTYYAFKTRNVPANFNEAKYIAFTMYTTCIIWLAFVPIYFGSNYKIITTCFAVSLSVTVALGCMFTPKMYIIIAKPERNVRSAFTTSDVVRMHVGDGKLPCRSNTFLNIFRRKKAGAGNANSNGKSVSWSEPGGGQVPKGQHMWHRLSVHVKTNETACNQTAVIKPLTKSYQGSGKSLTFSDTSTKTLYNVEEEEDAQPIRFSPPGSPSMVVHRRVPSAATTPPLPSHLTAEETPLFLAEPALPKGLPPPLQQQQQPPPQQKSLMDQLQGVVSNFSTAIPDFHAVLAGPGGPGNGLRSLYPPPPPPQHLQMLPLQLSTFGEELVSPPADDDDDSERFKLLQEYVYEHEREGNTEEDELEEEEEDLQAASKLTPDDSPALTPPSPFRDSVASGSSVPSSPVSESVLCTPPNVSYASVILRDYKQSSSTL

N[C@@]1(C(=O)O)CCC2C[C@H](C(=O)O)C21 (some centres not stated)
Max agonist activity [1]: 16% | Max agonist activity [2]: 20%
